Experimental data: PubChem BioAssay AID1259407 (Chemical Carcinogenesis Research Information System (CCRIS), 2018)
Calls of active or inactive are those of the source. The rule behind the calls is not given here.

Tested on: CCRIS mutagenicity, Ames/micronucleus/aberration tests
Assay: CCRIS mutagenicity studies
[1] = Test System: AMES SALMONELLA TYPHIMURIUM, Strain/Indicator: TA98, Metabolic Activation: HAMSTER, LIVER, S-9, AROCLOR 1254 (10%), Method: PREINCUBATION
[2] = Test System: AMES SALMONELLA TYPHIMURIUM, Strain/Indicator: TA98, Metabolic Activation: NONE, Method: PREINCUBATION
[3] = Test System: AMES SALMONELLA TYPHIMURIUM, Strain/Indicator: TA98, Metabolic Activation: RAT, LIVER, S-9, AROCLOR 1254 (10%), Method: PREINCUBATION
[4] = Test System: AMES SALMONELLA TYPHIMURIUM, Strain/Indicator: TA100, Metabolic Activation: HAMSTER, LIVER, S-9, AROCLOR 1254 (10%), Method: PREINCUBATION
[5] = Test System: AMES SALMONELLA TYPHIMURIUM, Strain/Indicator: TA100, Metabolic Activation: NONE, Method: PREINCUBATION
[6] = Test System: AMES SALMONELLA TYPHIMURIUM, Strain/Indicator: TA100, Metabolic Activation: RAT, LIVER, S-9, AROCLOR 1254 (10%), Method: PREINCUBATION
[7] = Test System: AMES SALMONELLA TYPHIMURIUM, Strain/Indicator: TA1535, Metabolic Activation: HAMSTER, LIVER, S-9, AROCLOR 1254 (10%), Method: PREINCUBATION
[8] = Test System: AMES SALMONELLA TYPHIMURIUM, Strain/Indicator: TA1535, Metabolic Activation: NONE, Method: PREINCUBATION
[9] = Test System: AMES SALMONELLA TYPHIMURIUM, Strain/Indicator: TA1535, Metabolic Activation: RAT, LIVER, S-9, AROCLOR 1254 (10%), Method: PREINCUBATION
[10] = Test System: AMES SALMONELLA TYPHIMURIUM, Strain/Indicator: TA1537, Metabolic Activation: NONE, Method: PREINCUBATION

Measured: mutagenic call

Cc1ccc(Cl)cc1
inactive: Test System: AMES SALMONELLA TYPHIMURIUM, Strain/Indicator: TA97, Metabolic Activation: HAMSTER, LIVER, S-9, AROCLOR 1254 (10%), Method: PREINCUBATION inactive; negative | Test System: AMES SALMONELLA TYPHIMURIUM, Strain/Indicator: TA97, Metabolic Activation: HAMSTER, LIVER, S-9, AROCLOR 1254 (30%), Method: PREINCUBATION inactive; negative | Test System: AMES SALMONELLA TYPHIMURIUM, Strain/Indicator: TA97, Metabolic Activation: NONE, Method: PREINCUBATION inactive; negative | Test System: AMES SALMONELLA TYPHIMURIUM, Strain/Indicator: TA97, Metabolic Activation: RAT, LIVER, S-9, AROCLOR 1254 (10%), Method: PREINCUBATION inactive; negative | Test System: AMES SALMONELLA TYPHIMURIUM, Strain/Indicator: TA97, Metabolic Activation: RAT, LIVER, S-9, AROCLOR 1254 (30%), Method: PREINCUBATION inactive; negative | [1] inactive; negative | Test System: AMES SALMONELLA TYPHIMURIUM, Strain/Indicator: TA98, Metabolic Activation: HAMSTER, LIVER, S-9, AROCLOR 1254 (30%), Method: PREINCUBATION inactive; negative | [2] inactive; negative | Test System: AMES SALMONELLA TYPHIMURIUM, Strain/Indicator: TA98, Metabolic Activation: RAT LIVER S-9, PHENOBARBITAL AND BETA-NAPHTHOFLAVONE, Method: PREINCUBATION inactive; negative | [3] inactive; negative | Test System: AMES SALMONELLA TYPHIMURIUM, Strain/Indicator: TA98, Metabolic Activation: RAT, LIVER, S-9, AROCLOR 1254 (30%), Method: PREINCUBATION inactive; negative | [4] inactive; negative | Test System: AMES SALMONELLA TYPHIMURIUM, Strain/Indicator: TA100, Metabolic Activation: HAMSTER, LIVER, S-9, AROCLOR 1254 (30%), Method: PREINCUBATION inactive; negative | [5] inactive; negative | Test System: AMES SALMONELLA TYPHIMURIUM, Strain/Indicator: TA100, Metabolic Activation: RAT LIVER S-9, PHENOBARBITAL AND BETA-NAPHTHOFLAVONE, Method: PREINCUBATION inactive; negative | [6] inactive; negative | Test System: AMES SALMONELLA TYPHIMURIUM, Strain/Indicator: TA100, Metabolic Activation: RAT, LIVER, S-9, AROCLOR 1254 (30%), Method: PREINCUBATION inactive; negative | Test System: AMES SALMONELLA TYPHIMURIUM, Strain/Indicator: TA102, Metabolic Activation: NONE, Method: PREINCUBATION inactive; negative | Test System: AMES SALMONELLA TYPHIMURIUM, Strain/Indicator: TA102, Metabolic Activation: RAT LIVER S-9, PHENOBARBITAL AND BETA-NAPHTHOFLAVONE, Method: PREINCUBATION inactive; negative | Test System: AMES SALMONELLA TYPHIMURIUM, Strain/Indicator: TA104, Metabolic Activation: NONE, Method: PREINCUBATION inactive; negative | Test System: AMES SALMONELLA TYPHIMURIUM, Strain/Indicator: TA104, Metabolic Activation: RAT LIVER S-9, PHENOBARBITAL AND BETA-NAPHTHOFLAVONE, Method: PREINCUBATION inactive; negative | [7] inactive; negative | Test System: AMES SALMONELLA TYPHIMURIUM, Strain/Indicator: TA1535, Metabolic Activation: HAMSTER, LIVER, S-9, AROCLOR 1254 (30%), Method: PREINCUBATION inactive; negative | [8] inactive; negative | Test System: AMES SALMONELLA TYPHIMURIUM, Strain/Indicator: TA1535, Metabolic Activation: RAT LIVER S-9, PHENOBARBITAL AND BETA-NAPHTHOFLAVONE, Method: PREINCUBATION inactive; negative | [9] inactive; negative | Test System: AMES SALMONELLA TYPHIMURIUM, Strain/Indicator: TA1535, Metabolic Activation: RAT, LIVER, S-9, AROCLOR 1254 (30%), Method: PREINCUBATION inactive; negative | Test System: AMES SALMONELLA TYPHIMURIUM, Strain/Indicator: TA1537, Metabolic Activation: HAMSTER, LIVER, S-9, AROCLOR 1254 (30%), Method: PREINCUBATION inactive; negative | [10] inactive; negative | Test System: AMES SALMONELLA TYPHIMURIUM, Strain/Indicator: TA1537, Metabolic Activation: RAT LIVER S-9, PHENOBARBITAL AND BETA-NAPHTHOFLAVONE, Method: PREINCUBATION inactive; negative | Test System: AMES SALMONELLA TYPHIMURIUM, Strain/Indicator: TA1537, Metabolic Activation: RAT, LIVER, S-9, AROCLOR 1254 (30%), Method: PREINCUBATION inactive; negative | Test System: E.COLI, Strain/Indicator: WP2UVRA/PKM101, Metabolic Activation: NONE, Method: PREINCUBATION inactive; negative | Test System: E.COLI, Strain/Indicator: WP2UVRA/PKM101, Metabolic Activation: RAT LIVER S-9, PHENOBARBITAL AND BETA-NAPHTHOFLAVONE, Method: PREINCUBATION inactive; negative | Test System: E.COLI, Strain/Indicator: WP2UVRA, Metabolic Activation: NONE, Method: PREINCUBATION inactive; negative | Test System: E.COLI, Strain/Indicator: WP2UVRA, Metabolic Activation: RAT LIVER S-9, PHENOBARBITAL AND BETA-NAPHTHOFLAVONE, Method: PREINCUBATION inactive; negative

CCCCCCCCOP(=O)(OCCCCCCCC)OCCCCCCCC
inactive: [1] inactive; negative | [2] inactive; negative | [3] inactive; negative | [4] inactive; negative | [5] inactive; negative | [6] inactive; negative | [7] inactive; negative | [8] inactive; negative | [9] inactive; negative | Test System: AMES SALMONELLA TYPHIMURIUM, Strain/Indicator: TA1537, Metabolic Activation: HAMSTER, LIVER, S-9, AROCLOR 1254 (10%), Method: PREINCUBATION inactive; negative | [10] inactive; negative | Test System: AMES SALMONELLA TYPHIMURIUM, Strain/Indicator: TA1537, Metabolic Activation: RAT, LIVER, S-9, AROCLOR 1254 (10%), Method: PREINCUBATION inactive; negative

COc1ccc(C(=O)ON(OCc2ccccc2)C(=O)c2ccccc2)cc1
active: Test System: AMES SALMONELLA TYPHIMURIUM, Strain/Indicator: TA100, Metabolic Activation: NONE, Method: STANDARD PLATE active; positive | Test System: AMES SALMONELLA TYPHIMURIUM, Strain/Indicator: TA100, Metabolic Activation: RAT, S-9, AROCLOR, Method: STANDARD PLATE active; positive
